Experimental findings from article PMC5065612, “A small molecule inhibitor of mutant IDH2 rescues cardiomyopathy in a D-2-hydroxyglutaric aciduria type II mouse model” (Journal of Inherited Metabolic Disease, 2016) are described below.

The target of test [1] is T1, Idh2R140Q (mouse isocitrate dehydrogenase 2) (Mus musculus, UniProt P54071, R140Q).
T1 construct: gene Idh2; Idh2R140Q knock-in mouse embryonic stem cells
T1 sequence (P54071 40-452 R140Q): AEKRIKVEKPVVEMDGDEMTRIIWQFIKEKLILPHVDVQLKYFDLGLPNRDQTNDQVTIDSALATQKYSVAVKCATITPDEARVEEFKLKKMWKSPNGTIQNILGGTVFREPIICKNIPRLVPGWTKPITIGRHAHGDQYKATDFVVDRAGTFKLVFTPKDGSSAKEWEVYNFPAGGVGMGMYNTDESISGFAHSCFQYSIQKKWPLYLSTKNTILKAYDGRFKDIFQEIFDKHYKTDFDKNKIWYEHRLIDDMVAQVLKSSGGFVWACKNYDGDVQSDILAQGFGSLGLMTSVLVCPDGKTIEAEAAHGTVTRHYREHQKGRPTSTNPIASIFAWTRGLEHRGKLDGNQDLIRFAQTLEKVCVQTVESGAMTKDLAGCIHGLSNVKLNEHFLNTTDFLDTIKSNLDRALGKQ
The test can be described thus: 2HG production in culture medium of knock-in ES cells, LC-MS. The format is cell-based.

Test [2] deals with T2, IDH2R140Q (isocitrate dehydrogenase 2) (Homo sapiens, UniProt P48735, R140Q).
T2 construct: gene IDH2; IDH2R140Q homodimer, recombinant purified enzyme
T2 sequence (P48735 40-452 R140Q): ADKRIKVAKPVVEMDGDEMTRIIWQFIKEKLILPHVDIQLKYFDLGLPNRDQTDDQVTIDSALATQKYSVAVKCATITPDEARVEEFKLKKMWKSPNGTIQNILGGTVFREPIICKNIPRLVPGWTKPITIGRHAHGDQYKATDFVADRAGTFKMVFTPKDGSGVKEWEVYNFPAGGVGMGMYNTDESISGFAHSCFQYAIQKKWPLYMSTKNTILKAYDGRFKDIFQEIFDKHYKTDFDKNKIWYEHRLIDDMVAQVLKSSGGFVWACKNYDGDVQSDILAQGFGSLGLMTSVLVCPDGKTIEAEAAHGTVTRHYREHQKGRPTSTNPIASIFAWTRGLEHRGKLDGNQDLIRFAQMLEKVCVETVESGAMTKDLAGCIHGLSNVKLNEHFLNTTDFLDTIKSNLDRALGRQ
Kind of test: NADPH depletion end-point assay (diaphorase/resazurin), […] h preincubation, recombinant enzyme. It is filed as biochemical. For orientation: Resazurin is reduced to fluorescent resorufin, in cell work by metabolically active cells.

One may read the IC50 as the midpoint of a concentration-inhibition curve. For `CC(C)Nc1nc(Nc2ccnc(C(F)(F)F)c2)nc(-c2cccc(C(F)(F)F)n2)n1` [AGI-026], the values for the IC50 in test [1] and in test [2] were 5.4 ± 2.8 nM and 4 ± 0.2 nM, respectively.
